{
  "source": "paper PMC8714961",
  "about": "“Involvement of P-gp on Reversing Multidrug Resistance Effects of 23-Hydroxybetulinic Acid on Chemotherapeutic Agents” (Frontiers in Pharmacology, 2021)",
  "key": {"[1]": {"system": "MCF-7/ADR cells", "test": "Trypan blue exclusion assay, MCF-7/ADR cells", "format": "cell-based", "description": "(§1) MCF-7 (human breast carcinoma cells) and MCF-7/ADR (P-gp-overexpressing derivative cells) cell lines were obtained from Blood Diseases Hospital, Chinese Academy of Medica ([Shi et al., 2011]). The cells were routinely maintained in RPMI 1640 with 10% heat-inactivated fetal bovine serum (FBS), 1% non-essential amino acid solution, 0.1 mg/ml streptomycin, and 100 units/ml penicillin. Caco-2 cells were purchased from American Type Culture Collection (ATCC, Rockville, MD, United States). Vector-MDCK and MDR1-MDCK cells were purchased from PharmaResources Co., Ltd. (China). Both Caco-2 and MDCK cells were maintained at Dulbecco’s modified Eagle’s medium (DMEM) with 10% FBS, 1% non-essential amino acid solution, 0.1 mg/ml streptomycin, and 100 units/ml penicillin. MCF-7/ADR cells were treated with […] and were cultured in ADR-free medium for more than 14 days before the experiment. All cells were cultured at 37°C in a humidified atmosphere of 5% CO2.\n(§2) Trypan blue exclusion assay was used to measure the viability of cells to compounds. Briefly, MCF-7/sensitive (MCF-7/S) and MCF-7/ADR cells were diluted into the density of 0.5×10^4 cells/ml, then cells (1 ml) were seeded in culture plates. […]. The viable and dead cells (stained in blue) were counted by haemacytometer."}, "[2]": {"system": "MCF-7/S cells", "test": "Trypan blue exclusion assay, MCF-7/S cells", "format": "cell-based", "settings": "0.2, 2 and 20 µM with ADR 0.08 µM or VCR 0.5 µM, 48 h", "description": "as §1, §2"}, "[3]": {"system": "MCF-7/ADR cells", "test": "Hoechst assay (apoptosis)", "format": "cell-based, human", "settings": "for Number of apoptosis cells, single agent: vs control group", "description": "MCF-7/ADR cells were collected and cultured at the density of 2.0 × 10^5/well in 24-well plates. […] The cells were dyed with Hoechst 33,342 (Beyotime, Shanghai, China) in the dark at 37°C for 30 min after washing with phosphate buffered saline (PBS). The morphological changes of the nucleus were evaluated by a fluorescence microscope."}, "[4]": {"molecular_target": "T1, P-gp (Homo sapiens, UniProt P08183)", "T1 sequence (P08183 whole entry)": "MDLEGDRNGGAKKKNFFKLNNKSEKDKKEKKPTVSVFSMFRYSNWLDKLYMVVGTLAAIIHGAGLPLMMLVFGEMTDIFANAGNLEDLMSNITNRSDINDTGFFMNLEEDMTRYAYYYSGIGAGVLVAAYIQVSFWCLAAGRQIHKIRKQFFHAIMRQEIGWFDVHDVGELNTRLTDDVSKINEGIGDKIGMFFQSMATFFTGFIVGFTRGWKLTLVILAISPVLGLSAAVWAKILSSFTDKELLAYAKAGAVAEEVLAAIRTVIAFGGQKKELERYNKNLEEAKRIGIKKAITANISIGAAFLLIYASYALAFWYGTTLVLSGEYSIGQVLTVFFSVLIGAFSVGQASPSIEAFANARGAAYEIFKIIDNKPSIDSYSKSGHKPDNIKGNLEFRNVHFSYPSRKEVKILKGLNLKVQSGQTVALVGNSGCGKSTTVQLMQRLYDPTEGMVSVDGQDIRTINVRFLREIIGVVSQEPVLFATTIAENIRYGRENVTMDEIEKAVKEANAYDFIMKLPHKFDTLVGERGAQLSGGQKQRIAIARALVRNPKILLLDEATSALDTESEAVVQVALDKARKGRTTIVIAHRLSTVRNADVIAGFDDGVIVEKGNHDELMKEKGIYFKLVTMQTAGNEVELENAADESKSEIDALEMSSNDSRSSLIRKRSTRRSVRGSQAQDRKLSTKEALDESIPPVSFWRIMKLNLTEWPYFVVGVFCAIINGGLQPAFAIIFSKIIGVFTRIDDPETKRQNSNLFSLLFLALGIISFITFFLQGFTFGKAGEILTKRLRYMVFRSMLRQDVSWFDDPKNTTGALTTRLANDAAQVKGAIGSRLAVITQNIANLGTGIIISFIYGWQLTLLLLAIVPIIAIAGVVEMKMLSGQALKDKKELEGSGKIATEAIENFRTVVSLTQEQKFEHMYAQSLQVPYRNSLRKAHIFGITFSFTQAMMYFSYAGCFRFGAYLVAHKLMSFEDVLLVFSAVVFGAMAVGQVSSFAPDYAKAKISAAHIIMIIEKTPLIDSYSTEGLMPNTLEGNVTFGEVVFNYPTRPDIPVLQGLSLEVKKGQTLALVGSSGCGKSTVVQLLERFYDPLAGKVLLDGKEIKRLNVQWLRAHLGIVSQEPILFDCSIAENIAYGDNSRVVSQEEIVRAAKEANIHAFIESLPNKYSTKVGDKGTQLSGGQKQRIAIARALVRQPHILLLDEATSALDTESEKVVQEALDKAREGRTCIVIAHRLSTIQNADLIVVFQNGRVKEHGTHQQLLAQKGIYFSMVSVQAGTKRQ", "test": "MDCK-MDR1 transport study, inhibition of VCR transport", "settings": "for Folds (RE) of VCR: vs control", "description": "Briefly, MDCK-MDR1 cells (1×10^5/Well) were seeded onto […] pore-size transwell inserts (Millipore, MA, United States) in 24-well plates.\n(§3) The cells were rinsed with warmed Hank’s balanced salt solution (HBSS), and the inserts were incubated for 20 min at 37°C. […] Aliquots (50 µl) were taken from the receiver compartment at intervals of 30, 60, 90, and 120 min and replaced with fresh buffer. In the study, verapamil (VER), known P-gp inhibitor, was selected as positive control.\n(§4) The apparent permeability values (Papp) were evaluated in all experiments according to the following equation: Papp=dQ/dt/AC0 (1) where A means the insert area and C0 represents the initial concentration. dQ/dt represents the slope of the cumulative content transported during the time course of the period studied."}, "[5]": {"system": "MDCK-MDR1 cell monolayers", "test": "MDCK-MDR1 transport of BA/23-HBA with or without verapamil", "settings": "for Folds (RE): +VER (verapamil 20 µM) vs without VER", "description": "Briefly, MDCK-MDR1 cells (1×10^5/Well) were seeded onto […] pore-size transwell inserts (Millipore, MA, United States) in 24-well plates. Cells were cultured for 5–7 days, when the transepithelial electrical resistance (TEER) values were 120–240 Ω cm^2.\nas §3, §4\nThe efflux ratio (ER) was detected according to the ratio of Papp as the following equation: ER=Papp(B−A)/Papp(A−B) (2)"}, "[6]": {"molecular_target": "T1, P-gp", "settings": "for Folds (RE) of digoxin: vs control", "method": "Briefly, MDCK-MDR1 cells (1×10^5/Well) were seeded onto 0.4 mm pore-size transwell inserts (Millipore, MA, United States) in 24-well plates."}, "[7]": {"molecular_target": "T1, P-gp", "test": "Caco-2 uptake study (digoxin, VCR)", "method": "Briefly, the cells (1×10^5/Well) were cultured in 24-well plates, and culture medium was changed every other day. The uptake study was taken when the monolayers formed. […] After 2 h incubation, the drug solution was removed to terminate reaction, and the monolayers were washed three times with cold Hank’s solution. The other steps were taken according to the above process in Adriamycin/Vincristine Accumulation Study."}, "[8]": {"system": "MCF-7/S cells", "test": "ADR/VCR accumulation study in MCF-7/S cells", "settings": "ADR/VCR 5 µM, test compound 0.2, 2, 20 µM, 1 h", "method": "(§5) MCF-7 cells (1×10^5/Well) were incubated in 24-well plates. […] After 1 h incubation, the compound solution was aspirated to stop further accumulation, and the monolayers were rinsed with cold Hank’s solution for three times. The drug content was detected by lysing the cells with ultrasound, and then the single well lysate was transferred to a plastic EP tube for further analysis. The protein concentration of the cells was measured using Coomassie brilliant blue."}, "[9]": {"molecular_target": "T1, P-gp", "test": "MDR1 shift assay (UIC2 binding)", "format": "cell-based", "design": "endogenous in cells; host or cells: MCF-7/ADR", "settings": "25 µM, MCF-7/ADR cells, vs solvent control", "description": "The monoclonal antibody UIC2 (2.5 μl) was added and incubated for 15 min, then 1 ml of cold binding buffer was used to terminate reaction. The cells were rinsed twice, followed by adding cold phycoerythrin-labeled anti-mouse IgG (250 μl) for another 15 min in the dark. Finally, cells were rinsed and incubated in cold binding buffer (250 μl) and further evaluated by flow cytometer (Cytomics FC 500; Beckman Coulter, Fullerton, CA). In this study, vincristine (25 µM) was set as positive control."}, "[10]": {"system": "MCF-7/ADR cells", "test": "ADR/VCR accumulation study in MCF-7/ADR cells", "settings": "ADR/VCR 5 µM, test compound 0.2, 2, 20 µM, 1 h", "method": "as §5"}, "[11]": {"settings": "compound 0.2 µM, +VER (verapamil 20 µM)"}, "[12]": {"settings": "compound 0.2 µM, without verapamil"}, "[13]": {"settings": "compound 2 µM, +VER (verapamil 20 µM)"}, "[14]": {"settings": "compound 2 µM, without verapamil"}, "[15]": {"settings": "compound 20 µM, +VER (verapamil 20 µM)"}, "[16]": {"settings": "compound 20 µM, without verapamil"}, "[17]": {"settings": "digoxin 5 µM with test compound 0.2 µM"}, "[18]": {"settings": "digoxin 5 µM with test compound 2 µM"}, "[19]": {"settings": "digoxin 5 µM with test compound 20 µM"}},
  "note": "Like-named read-outs stand apart in the source and are kept apart here. Marks after values point to notes of the source that are not given here.",
  "data": [
    {"smiles": "C=C(C)[C@@H]1CC[C@]2(C(=O)O)CC[C@]3(C)[C@H](CC[C@@H]4[C@@]5(C)CC[C@H](O)[C@@](C)(CO)[C@@H]5CC[C@]43C)[C@@H]12", "note": "[23-HBA, 23-hydroxybetulinic acid]", "values": [
      {"measurement": "Cytotoxicity of combination exposure with ADR to MCF-7/ADR", "setting": "[1]; 0–20 µM with ADR 3 µM", "result": "showed significant cytotoxicity to MCF-7/ADR"},
      {"measurement": "Cell toxicity as a single agent", "setting": "[1]; 0–20 µM, single agent", "result": "no cell toxicity was detected"},
      {"measurement": "Effect on cytotoxicity of MCF-7/ADR cells to ADR or VCR", "setting": "[1]; 0.2, 2 and 20 µM with ADR 3 µM or VCR 6 µM, 48 h", "result": "can increase cytotoxicity of MCF-7/ADR cells to ADR or VCR in concentration-dependent manner"},
      {"measurement": "Effect on cytotoxicity of MCF-7/S cells to ADR or VCR", "setting": "[2]", "result": "neither 23-HBA nor BA showed significant effects on cytotoxicity"},
      {"measurement": "Number of apoptosis cells, single agent", "setting": "[3]; 20 µM alone", "result": "not obviously different with the control group"},
      {"measurement": "Apoptosis caused by ADR in combination exposure", "setting": "[3]; 2 and 20 µM with ADR 3 µM", "result": "dose-dependent (2 and 20 μM) increase in the apoptosis caused by ADR"},
      {"measurement": "Papp A→B of VCR", "setting": "[4]; VCR with test compound 0.2 µM", "result": "0.69 ± 0.30 ×10^−6 cm s^−1"},
      {"measurement": "Papp B→A of VCR", "setting": "[4]; VCR with test compound 0.2 µM", "result": "4.45 ± 1.12 ×10^−6 cm s^−1"},
      {"measurement": "RE (net efflux) of VCR", "setting": "[4]; VCR with test compound 0.2 µM", "result": 6.41},
      {"measurement": "Folds (RE) of VCR", "setting": "[4]; VCR with test compound 0.2 µM", "result": 1.70},
      {"measurement": "Papp A→B of VCR", "setting": "[4]; VCR with test compound 2 µM", "result": "2.49 ± 0.59 ×10^−6 cm s^−1"},
      {"measurement": "Papp B→A of VCR", "setting": "[4]; VCR with test compound 2 µM", "result": "0.39 ± 0.01 ×10^−6 cm s^−1"},
      {"measurement": "RE (net efflux) of VCR", "setting": "[4]; VCR with test compound 2 µM", "result": 0.16},
      {"measurement": "Folds (RE) of VCR", "setting": "[4]; VCR with test compound 2 µM", "result": 70.15},
      {"measurement": "Papp A→B of VCR", "setting": "[4]; VCR with test compound 20 µM", "result": "2.19 ± 1.74 ×10^−6 cm s^−1"},
      {"measurement": "Papp B→A of VCR", "setting": "[4]; VCR with test compound 20 µM", "result": "0.48 ± 0.08 ×10^−6 cm s^−1"},
      {"measurement": "RE (net efflux) of VCR", "setting": "[4]; VCR with test compound 20 µM", "result": 0.22},
      {"measurement": "Folds (RE) of VCR", "setting": "[4]; VCR with test compound 20 µM", "result": 49.32},
      {"measurement": "ER values", "setting": "[5]; MDCK-MDR1 cells, all the concentrations (0.2–20 µM)", "result": "less than 1.5"},
      {"measurement": "Papp A-B", "setting": "[5]; [11]", "result": "8.49 ± 1.39 ×10^−6 cm s^−1"},
      {"measurement": "Papp B-A", "setting": "[5]; [11]", "result": "5.20 ± 0.59 ×10^−6 cm s^−1"},
      {"measurement": "RE (net efflux)", "setting": "[5]; [11]", "result": "0.61**"},
      {"measurement": "Folds (RE)", "setting": "[5]; compound 0.2 µM", "result": 0.41},
      {"measurement": "Papp A-B", "setting": "[5]; [12]", "result": "6.73 ± 0.09 ×10^−6 cm s^−1"},
      {"measurement": "Papp B-A", "setting": "[5]; [12]", "result": "10.01 ± 1.38 ×10^−6 cm s^−1"},
      {"measurement": "RE (net efflux)", "setting": "[5]; [12]", "result": 1.49},
      {"measurement": "Papp A-B", "setting": "[5]; [13]", "result": "10.03 ± 3.22 ×10^−6 cm s^−1"},
      {"measurement": "Papp B-A", "setting": "[5]; [13]", "result": "7.83 ± 0.32 ×10^−6 cm s^−1"},
      {"measurement": "RE (net efflux)", "setting": "[5]; [13]", "result": "0.78*"},
      {"measurement": "Folds (RE)", "setting": "[5]; compound 2 µM", "result": 0.63},
      {"measurement": "Papp A-B", "setting": "[5]; [14]", "result": "7.07 ± 0.64 ×10^−6 cm s^−1"},
      {"measurement": "Papp B-A", "setting": "[5]; [14]", "result": "8.75 ± 0.31 ×10^−6 cm s^−1"},
      {"measurement": "RE (net efflux)", "setting": "[5]; [14]", "result": 1.24},
      {"measurement": "Papp A-B", "setting": "[5]; [15]", "result": "12.76 ± 1.13 ×10^−6 cm s^−1"},
      {"measurement": "Papp B-A", "setting": "[5]; [15]", "result": "7.47 ± 1.64 ×10^−6 cm s^−1"},
      {"measurement": "RE (net efflux)", "setting": "[5]; [15]", "result": 0.59},
      {"measurement": "Folds (RE)", "setting": "[5]; compound 20 µM", "result": 0.82},
      {"measurement": "Papp A-B", "setting": "[5]; [16]", "result": "5.95 ± 0.94 ×10^−6 cm s^−1"},
      {"measurement": "RE (net efflux)", "setting": "[5]; [16]", "result": 0.72},
      {"measurement": "RE (net efflux) of digoxin", "setting": "[6]; [17]", "result": 31.57},
      {"measurement": "Folds (RE) of digoxin", "setting": "[6]; [17]", "result": 1.16},
      {"measurement": "RE (net efflux) of digoxin", "setting": "[6]; [18]", "result": 27.96},
      {"measurement": "Folds (RE) of digoxin", "setting": "[6]; [18]", "result": 1.31},
      {"measurement": "RE (net efflux) of digoxin", "setting": "[6]; [19]", "result": 2.69},
      {"measurement": "Folds (RE) of digoxin", "setting": "[6]; [19]", "result": 13.61},
      {"measurement": "Inhibitory effect compared with verapamil (20 µM) in Caco-2 cells", "setting": "[7]; 20 µM", "result": "higher than that of verapamil"},
      {"measurement": "Effect on uptake of VCR and digoxin in Caco-2 cells (P-gp inhibition)", "setting": "[7]; 0.2, 2 and 20 µM, 2 h", "result": "showed dose-dependent increase on the penetration of VCR and digoxin"},
      {"measurement": "Accumulation of ADR/VCR in sensitive MCF-7 cells", "setting": "[8]", "result": "little impact was observed"},
      {"measurement": "Fluorescence intensity of UIC2 binding (MDR1 shift)", "setting": "[9]", "result": "fluorescence intensity showed slight increase"},
      {"measurement": "Intracellular accumulation of ADR/VCR in resistant MCF-7 cells", "setting": "[10]", "result": "obviously increased"}
    ]},
    {"smiles": "COc1cccc2c1C(=O)c1c(O)c3c(c(O)c1C2=O)C[C@@](O)(C(=O)CO)C[C@@H]3O[C@H]1C[C@H](N)[C@H](O)[C@H](C)O1", "note": "[ADR, Adriamycin, reference compound]", "values": [
      {"measurement": "Number of apoptosis cells, single agent", "setting": "[3]; 3 µM alone", "result": "not obviously different with the control group"}
    ]}
  ]
}
